Measured values: publication PMC10935334, “Chemotherapeutic Activities of New η^6-p-Cymene Ruthenium(II) and Osmium(II) Complexes with Chelating SS and Tridentate SNS Ligands” (Molecules, 2024)

Key:
[1] = test system: cervical carcinoma (HeLa) cell line; assay: MTT cell viability (cytotoxicity) assay in HeLa cells; format: cell-based, human
Source text: The cytotoxicity of the arene-Ru and arene-Os complexes was investigated against HeLa and Hek293 cells. The former cell is a cervical cancer line, while the latter is a non-tumor kidney cell line used to examine tumor selectivity. […] Due to their relative inertness and sufficient stability under physiological conditions, osmium complexes are considered exciting alternatives to ruthenium-based anti-cancer agents.
Phosphate-buffered saline tablets (PBS), 3-(4,5-dimethylthiazol-2-yl)-2.5-diphenyltetrazolium bromide (MTT), and DMSO were obtained from Merck (Darmstadt, Germany). The human embryonic kidney (HEK293) and cervical carcinoma (HeLa) cell lines were sourced from the American Type Culture Collection (ATCC) (Manassas, VA, USA). […]
(§1) The cytotoxicity of the compounds was examined in the HeLa and HEK293 cells using the MTT assay. […] Absorbance measurements were then taken at 570 nm using a Mindray MR-96A microplate reader (Vacutec, Hamburg, Germany).

[2] = test system: human embryonic kidney (HEK293) cell line; assay: MTT cell viability (cytotoxicity) assay in HEK293 cells; format: cell-based; conditions: 48 h incubation, non-tumor HEK293 cells, concentration needed to cause 50% net cell mortality
Source text: The cytotoxicity of the arene-Ru and arene-Os complexes was investigated against HeLa and Hek293 cells. The former cell is a cervical cancer line, while the latter is a non-tumor kidney cell line used to examine tumor selectivity. […] These findings imply that the higher stability of the chelating (SS) and the pincer (SNS) ligand architectures in the complexes improve the biological (anti-proliferative) activity by rendering ligand dissociation less likely to occur under physiological conditions. The pincer (SNS) osmium complexes were more cytotoxic than their ruthenium analogues. […] These allow for more efficient interactions with biological target molecules. Osmium typically forms coordinative bonds with more inert bonds than in the analogous lighter homolog, ruthenium. Due to their relative inertness and sufficient stability under physiological conditions, osmium complexes are considered exciting alternatives to ruthenium-based anti-cancer agents. However, there was no apparent general pattern in the reactivity of the two metal centers and the isostructural ligand. […]
as §1

melting point [°C] | Compound | other results
194 to 197 | Cn1ccn(Cn2ccn(C)c2=S)c1=S | –
195 to 197 | Cn1ccn(CCn2ccn(C)c2=S)c1=S | –
190 to 193 | Cn1ccn(Cc2cccc(Cn3ccn(C)c3=S)n2)c1=S | –

Continued, molecule first:

Compound | melting point [°C] | other results
CCCn1ccn(CCn2ccn(CCC)c2=S)c1=S | 91 to 92 | –
CC(C)n1ccn(-c2cccc(-n3ccn(C(C)C)c3=S)n2)c1=S | 189 to 190 | –
CCn1ccn(CCn2ccn(CC)c2=S)c1=S | 131 to 133 | –
O=c1[nH]cc(F)c(=O)[nH]1 [5-Fluorouracil, reference compound] | – | Selectivity between tumor cells (HeLa) and normal cells (Hek293) ([1]; HeLa vs Hek293, MTT assay): selective toward the tumor cells; IC50 ([1]; Homo sapiens, MTT, 48 h incubation, HeLa cervical cancer cells, concentration needed to cause 50% net cell mortality): 87 ± 15 µM; IC50 [2]: 180 ± 20 µM
Cn1ccn(-c2cccc(-n3ccn(C)c3=S)n2)c1=S | 270 to 273 | –
CCn1ccn(Cn2ccn(CC)c2=S)c1=S | 175 to 177 | –
